From patent publication US8778881B2 (priority 2004, dated 2014)
Numbered stars: 1 amine (or outer) side, 2 acyl side, 3 side chain; on linkers, the order of the positions; unused ones are H or OH. Bridge positions count the residues as written; N and C are the ends. Square brackets hold non-standard residues; d marks the D form. Peptide text beside a SMILES is read from it. * marks the point of attachment. Orn(Me) = CN(CCC[C@H](N[*:1])C(=O)[*:2])[*:3]; Ala(4-thiazolyl) = N[C@@H](Cc1cscn1)C(=O)O; Ala(2-furyl) = N[C@@H](Cc1ccco1)C(=O)O; Orn(iPr) = CC(C)NCCC[C@H](N)C(=O)O; X1 = CCNCCC[C@H](N[*:1])C(=O)[*:2]; Dab(iPr) = CC(C)NCC[C@H](N)C(=O)O; 3Pal = N[C@@H](Cc1cccnc1)C(=O)O; 2Thi = N[C@@H](Cc1cccs1)C(=O)O; 3Thi = N[C@@H](Cc1ccsc1)C(=O)O; Aad = N[C@@H](CCCC(=O)O)C(=O)O; NHCH(CH2OH)2 = OCC(CO)N*; Orn = NCCC[C@H](N)C(=O)O; Dab = NCC[C@H](N)C(=O)O; X4 = OCCOCCN*; NHOH = ON*

Target: T1, human oxytocin (hOT) receptor (Homo sapiens, UniProt P30559)
T1 construct: expressed in transfected cells
T1 sequence (P30559 1-389): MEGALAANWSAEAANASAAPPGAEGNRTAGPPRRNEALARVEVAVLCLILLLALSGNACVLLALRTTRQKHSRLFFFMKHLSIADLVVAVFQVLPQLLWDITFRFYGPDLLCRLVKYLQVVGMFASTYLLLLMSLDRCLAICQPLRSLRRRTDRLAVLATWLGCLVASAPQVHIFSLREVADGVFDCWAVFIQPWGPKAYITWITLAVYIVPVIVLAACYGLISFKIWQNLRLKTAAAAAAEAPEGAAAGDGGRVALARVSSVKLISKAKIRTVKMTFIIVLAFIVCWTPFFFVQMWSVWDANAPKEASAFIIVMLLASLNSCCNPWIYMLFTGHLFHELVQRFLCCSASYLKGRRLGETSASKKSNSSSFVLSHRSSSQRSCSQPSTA
Assay: luciferase-based transcriptional reporter assay expressing the human oxytocin (hOT) receptor, for selectivity
Type: cell-based
Details: agonist efficacy at the hOT receptor compared to AVP; ratio not determined
Procedure: Agonist activity of compounds on the hV1a receptor was determined in a transcriptional reporter assay by transiently transfecting a hV1a receptor expression DNA into HEK-293 cells in concert with a reporter DNA containing intracellular calcium responsive promoter elements regulating expression of firefly luciferase. See Boss, V., Talpade, D. J., Murphy, T. J. J. Biol. Chem. 1996, May 3; 271(18), 10429-10432 for further guidance on this assay. […] To determine selectivity, compounds were tested in luciferase-based transcriptional reporter assays expressing the human oxytocin (hOT) receptor. Assays for other receptors (hV2, hV1b, rat V1a and rat V2) were also conducted.
The EC50 value given is the geometric mean expressed in nanomol/L (nM). Selectivity values are given as EC50 ratios.

| Structure (SMILES) | selectivity hOT/hV1a (class symbol) |
| --- | --- |
| CC[C@H](C)[C@@H]1NC(=O)[C@H](Cc2cccs2)NC(=O)[C@@H](N)CSSC[C@@H](C(=O)N2CCC[C@H]2C(=O)N[C@@H](CCCNC(C)C)C(=O)NCC(N)=O)NC(=O)[C@H](CC(N)=O)NC(=O)[C@H](CC(N)=O)NC1=O [Compound 43] (H-C[2Thi]INNCP[Orn(iPr)]G-NH2; disulfide 1-6; N-terminus and C-terminus assumed) | + (selective hV1a receptor agonist; EC50 hOT/hV1a ratio not determined due to very low agonist efficacy (<30% compared to AVP) at the hOT receptor) |
| CC[C@H](C)[C@@H]1NC(=O)[C@H](Cc2ccco2)NC(=O)[C@@H](N)CSSC[C@@H](C(=O)N2CCC[C@H]2C(=O)N[C@@H](CCN)C(=O)NCC(N)=O)NC(=O)[C@H](CC(N)=O)NC(=O)[C@H](CC(N)=O)NC1=O [Compound 44] (H-C[Ala(2-furyl)]INNCP[Dab]G-NH2; disulfide 1-6; N-terminus and C-terminus assumed) | + (selective hV1a receptor agonist; EC50 hOT/hV1a ratio not determined due to very low agonist efficacy (<30% compared to AVP) at the hOT receptor) |
| CC[C@H](C)[C@@H]1NC(=O)[C@H](Cc2cccs2)NC(=O)[C@@H](N)CSSC[C@@H](C(=O)N2CCC[C@H]2C(=O)N[C@@H](CCN)C(=O)NCC(N)=O)NC(=O)[C@H](CC(N)=O)NC(=O)[C@H](CC(N)=O)NC1=O [Compound 36] (H-C[2Thi]INNCP[Dab]G-NH2; disulfide 1-6; N-terminus and C-terminus assumed) | + (selective hV1a receptor agonist; EC50 hOT/hV1a ratio not determined due to very low agonist efficacy (<30% compared to AVP) at the hOT receptor) |
| CC[C@H](C)[C@@H]1NC(=O)[C@H](Cc2ccccc2)NC(=O)[C@@H](N)CSSC[C@@H](C(=O)N2CCC[C@H]2C(=O)N[C@@H](CCCN)C(=O)NCC(N)=O)NC(=O)[C@H](CC(N)=O)NC(=O)[C@H](CC(=O)NC)NC1=O [Compound 49] (H-CFID(NHMe)NCP[Orn]G-NH2; disulfide 1-6; N-terminus and C-terminus assumed) | + (selective hV1a receptor agonist; EC50 hOT/hV1a ratio not determined due to very low agonist efficacy (<30% compared to AVP) at the hOT receptor) |
| CC[C@H](C)[C@@H]1NC(=O)[C@H](Cc2ccccc2)NC(=O)[C@@H](N)CSSC[C@@H](C(=O)N2CCC[C@H]2C(=O)N[C@@H](CCNC(C)C)C(=O)NCC(N)=O)NC(=O)[C@H](CC(N)=O)NC(=O)[C@H](CCCC(N)=O)NC1=O [Compound 22] (H-CFI[Aad](NH2)NCP[Dab(iPr)]G-NH2; disulfide 1-6; N-terminus and C-terminus assumed) | + (selective hV1a receptor agonist; EC50 hOT/hV1a ratio not determined due to very low agonist efficacy (<30% compared to AVP) at the hOT receptor) |
| CC[C@H](C)[C@@H]1NC(=O)[C@H](Cc2ccccc2)NC(=O)[C@@H](N)CSSC[C@@H](C(=O)N2CCC[C@H]2C(=O)N[C@@H](CCCN)C(=O)NCC(N)=O)NC(=O)[C@H](CC(N)=O)NC(=O)[C@H](CC(=O)NCCOCCO)NC1=O [Compound 29] (H-CFID(X4)NCP[Orn]G-NH2; disulfide 1-6; N-terminus and C-terminus assumed) | + (selective hV1a receptor agonist; EC50 hOT/hV1a ratio not determined due to very low agonist efficacy (<30% compared to AVP) at the hOT receptor) |
| CCNC(=O)C[C@@H]1NC(=O)[C@H]([C@@H](C)CC)NC(=O)[C@H](Cc2ccccc2)NC(=O)[C@@H](N)CSSC[C@@H](C(=O)N2CCC[C@H]2C(=O)N[C@@H](CCCN)C(=O)NCC(N)=O)NC(=O)[C@H](CC(N)=O)NC1=O [Compound 48] (H-CFID(NHEt)NCP[Orn]G-NH2; disulfide 1-6; N-terminus and C-terminus assumed) | + (selective hV1a receptor agonist; EC50 hOT/hV1a ratio not determined due to very low agonist efficacy (<30% compared to AVP) at the hOT receptor) |
| CC[C@H](C)[C@@H]1NC(=O)[C@H](Cc2ccsc2)NC(=O)[C@@H](N)CSSC[C@@H](C(=O)N2CCC[C@H]2C(=O)N[C@@H](CCN)C(=O)NCC(N)=O)NC(=O)[C@H](CC(N)=O)NC(=O)[C@H](CC(N)=O)NC1=O [Compound 37] (H-C[3Thi]INNCP[Dab]G-NH2; disulfide 1-6; N-terminus and C-terminus assumed) | + (selective hV1a receptor agonist; EC50 hOT/hV1a ratio not determined due to very low agonist efficacy (<30% compared to AVP) at the hOT receptor) |
| CC[C@H](C)[C@@H]1NC(=O)[C@H](Cc2ccccc2)NC(=O)[C@@H](N)CSSC[C@@H](C(=O)N2CCC[C@H]2C(=O)N[C@@H](CCCN)C(=O)NCC(N)=O)NC(=O)[C@H](CC(N)=O)NC(=O)[C@H](CC(N)=O)NC1=O [Compound 30] (H-CFINNCP[Orn]G-NH2; disulfide 1-6; N-terminus and C-terminus assumed) | + (selective hV1a receptor agonist; EC50 hOT/hV1a ratio not determined due to very low agonist efficacy (<30% compared to AVP) at the hOT receptor) |
| CC[C@H](C)[C@@H]1NC(=O)[C@H](Cc2ccccc2)NC(=O)[C@@H](N)CSSC[C@@H](C(=O)N2CCC[C@H]2C(=O)N[C@@H](CCCN)C(=O)NCC(N)=O)NC(=O)[C@H](CC(N)=O)NC(=O)[C@H](CC(=O)NC(CO)CO)NC1=O [Compound 27] (H-CFID(NHCH(CH2OH)2)NCP[Orn]G-NH2; disulfide 1-6; N-terminus and C-terminus assumed) | + (selective hV1a receptor agonist; EC50 hOT/hV1a ratio not determined due to very low agonist efficacy (<30% compared to AVP) at the hOT receptor) |
| NCCCC[C@H](NC(=O)[C@@H]1CCCN1C(=O)[C@@H]1CSSC[C@H](NC(=O)CNC(=O)CNC(=O)CN)C(=O)N[C@@H](Cc2ccc(O)cc2)C(=O)N[C@@H](Cc2ccccc2)C(=O)N[C@@H](CCC(N)=O)C(=O)N[C@@H](CC(N)=O)C(=O)N1)C(=O)NCC(N)=O [terlipressin, reference compound] (H-GGGCYFQNCPKG-NH2; disulfide 4-9) | + (selective hV1a receptor agonist; EC50 hOT/hV1a ratio not determined due to very low agonist efficacy (<30% compared to AVP) at the hOT receptor) |
| CC[C@H](C)[C@@H]1NC(=O)[C@H](Cc2ccccc2)NC(=O)[C@@H](N)CSSC[C@@H](C(=O)N2CCC[C@H]2C(=O)N[C@@H](CCCNC)C(=O)NCC(N)=O)NC(=O)[C@H](CC(N)=O)NC(=O)[C@H](CC(N)=O)NC1=O [Compound 46] (H-CFINNCP[Orn(Me)]G-NH2; disulfide 1-6; N-terminus and C-terminus assumed) | + (selective hV1a receptor agonist; EC50 hOT/hV1a ratio not determined due to very low agonist efficacy (<30% compared to AVP) at the hOT receptor) |
| CC[C@H](C)[C@@H]1NC(=O)[C@H](Cc2cccnc2)NC(=O)[C@@H](N)CSSC[C@@H](C(=O)N2CCC[C@H]2C(=O)N[C@@H](CCN)C(=O)NCC(N)=O)NC(=O)[C@H](CC(N)=O)NC(=O)[C@H](CCC(N)=O)NC1=O [Compound 18] (H-C[3Pal]IQNCP[Dab]G-NH2; disulfide 1-6; N-terminus and C-terminus assumed) | + (selective hV1a receptor agonist; EC50 hOT/hV1a ratio not determined due to very low agonist efficacy (<30% compared to AVP) at the hOT receptor) |
| CC[C@H](C)[C@@H]1NC(=O)[C@H](Cc2cscn2)NC(=O)[C@@H](N)CSSC[C@@H](C(=O)N2CCC[C@H]2C(=O)N[C@@H](CCN)C(=O)NCC(N)=O)NC(=O)[C@H](CC(N)=O)NC(=O)[C@H](CCC(N)=O)NC1=O [Compound 13] (H-C[Ala(4-thiazolyl)]IQNCP[Dab]G-NH2; disulfide 1-6; N-terminus and C-terminus assumed) | + (selective hV1a receptor agonist; EC50 hOT/hV1a ratio not determined due to very low agonist efficacy (<30% compared to AVP) at the hOT receptor) |
| CC[C@H](C)[C@@H]1NC(=O)[C@H](Cc2ccccc2)NC(=O)[C@@H](N)CSSC[C@@H](C(=O)N2CCC[C@H]2C(=O)N[C@@H](CCCN)C(=O)NCC(N)=O)NC(=O)[C@H](CC(N)=O)NC(=O)[C@H](CCC(=O)NO)NC1=O [Compound 16] (H-CFIE(NHOH)NCP[Orn]G-NH2; disulfide 1-6; N-terminus and C-terminus assumed) | + (selective hV1a receptor agonist; EC50 hOT/hV1a ratio not determined due to very low agonist efficacy (<30% compared to AVP) at the hOT receptor) |
| CCNCCC[C@H](NC(=O)[C@@H]1CCCN1C(=O)[C@@H]1CSSC[C@H](N)C(=O)N[C@@H](Cc2ccccc2)C(=O)N[C@@H]([C@@H](C)CC)C(=O)N[C@@H](CC(N)=O)C(=O)N[C@@H](CC(N)=O)C(=O)N1)C(=O)NCC(N)=O [Compound 47] (H-CFINNCP[X1]G-NH2; disulfide 1-6; N-terminus and C-terminus assumed) | + (selective hV1a receptor agonist; EC50 hOT/hV1a ratio not determined due to very low agonist efficacy (<30% compared to AVP) at the hOT receptor) |
